Assay: Second study: NAD in tissues, oral (pegylated)NAD-Mg-GA vs injectable NAD
Assay type: in vivo
Conditions: group 2 (IP injectable NAD) vs group 1 (oral (pegylated)NAD-Mg-GA), healthy rats

NC(=O)c1ccc[n+]([C@@H]2O[C@H](COP(=O)([O-])OP(=O)(O)OC[C@H]3O[C@@H](n4cnc5c(N)ncnc54)[C@H](O)[C@@H]3O)[C@@H](O)[C@H]2O)c1 [injectable NAD, Nicotinamide Adenine Dinucleotide]
More NAD levels in the heart compared to group 1: 11%

From patent publication US20250345440A1, “METAL-ORGANIC FRAMEWORK MATERIALS AND USES OF THE METAL-ORGANIC FRAMEWORK MATERIALS” (MOF Science, LLC, priority 2024, published 2025)
